Read-outs that look alike come from different tables or passages of the source.
Legend:
[1] = tested on: HCT-8/NC cells; test: MTS cytotoxicity (drug tolerance) assay; conditions: no drug selection
[2] = tested on: HCT-8/WT(NTZ) cells; test: MTS cytotoxicity (drug tolerance) assay; conditions: WT(NTZ) cells, after selection by NTZ
Method: (§1) Host cell drug tolerance to specified inhibitors was evaluated by 3-(4,5-dimethylthiazol-2-yl)-5-(3-carboxymethoxyphenyl)-2-(4-sulfophenyl)-2H-tetrazolium (MTS) assay. WT and transgenic host cells were seeded in 96-well plates (10,000 cells/well) and cultured for 24 h, followed by the addition of specified compounds at serially diluted concentrations and continued culture for 41 h. After 3 washes with serum-free medium, MTS solution (Saint-Bio, Shanghai, China) was added into the plates (20 μL/well) and incubated at 37°C for 2 h. Optical density at 490 nm (OD490) was measured using a Synergy LX multi-mode reader (BioTek, Winooski, VT). Drug tolerance was indicated by half-maximal cytotoxic concentrations (TC50 values) calculated by nonlinear regression using 4PL model. Selectivity index (SI) for each compound was determined by the ratio between TC50 and EC50 values (SI = TC50/EC50).
(§2) Surviving cells were allowed to recover in drug-free medium for 3–5 d to near confluence (round 1). The selection/recovery cycle were repeated once (round 2). […] Finally, all cells were cultured at the final selection concentrations of PTX or NTZ for ≥7 d, followed by culture in drug-free medium for 14 d. At this time point, cells were used for cytotoxicity and efficacy assays or cryopreserved in a liquid nitrogen tank. The resulting cell lines after PTX or NTZ selection were designated as WT(PTX), NC(PTX) and MDR1(PTX), or WT(NTZ), NC(NTZ) and MDR1(NTZ), respectively (Tables 1 and S2).

[3] = tested on: HCT-8/NC(NTZ) cells; test: MTS cytotoxicity (drug tolerance) assay; conditions: NC(NTZ) cells, after selection by NTZ
Method: as §1, §2

[4] = tested on: Cryptosporidium parvum; test: Anti-cryptosporidial efficacy assay (44-h infection/qRT-PCR); conditions: for EC50: Cryptosporidium parvum; for On-target rate at EC50 / On-target (Eon) rate at EC50: Eq 2; for Action on parasite target (on-target) conclusion: MDR1-transgenic host cell model; for Eoff, proportion of off-parasite-target effect / Eon, proportion of on-parasite-target effect: Eq 3 and 4
[5] = tested on: HCT-8/NC(PTX) cells; test: MTS cytotoxicity (drug tolerance) assay; conditions: NC(PTX) cells, after selection by PTX
Method: as §1
(§3) Surviving cells were allowed to recover in drug-free medium for 3–5 d to near confluence (round 1). The selection/recovery cycle were repeated once (round 2). […] The resulting cell lines after PTX or NTZ selection were designated as WT(PTX), NC(PTX) and MDR1(PTX), or WT(NTZ), NC(NTZ) and MDR1(NTZ), respectively (Tables 1 and S2).

[6] = tested on: HCT-8/MDR1(NTZ) cells; test: MTS cytotoxicity (drug tolerance) assay; conditions: for TC50: human, 41 h
Method: as §1, §3

[7] = tested on: HCT-8/WT(PTX) cells; test: MTS cytotoxicity (drug tolerance) assay; conditions: WT(PTX) cells, after selection by PTX
Method: as §1, §3

[8] = tested on: HCT-8/MDR1 cells; conditions: human, 41 h
[9] = tested on: HCT-8/WT cells; test: MTS cytotoxicity (drug tolerance) assay; conditions: for TC50: WT cells, no drug selection, MTS assay
Method: as §1

[10] = tested on: HCT-8/MDR1(PTX) cells; conditions: for TC50: MDR1(PTX) cells, after selection by PTX
Method: as §1, §3

[11] = MDR1, read-out: Antiparasitic efficacy (EC50), C. parvum cultured in MDR1(PTX) host cells
[12] = read-out: Antiparasitic efficacy (EC50), C. parvum cultured in NC host cells
[13] = read-out: Antiparasitic efficacy (EC50), C. parvum cultured in WT host cells
[14] = at EC10, MDR1(NTZ) vs. NC model
[15] = at EC20, MDR1(NTZ) vs. NC model
[16] = at EC30, MDR1(NTZ) vs. NC model
[17] = at EC40, MDR1(NTZ) vs. NC model
[18] = at EC50, MDR1(NTZ) vs. NC model
[19] = at EC60, MDR1(NTZ) vs. NC model
[20] = at EC70, MDR1(NTZ) vs. NC model
[21] = at EC80, MDR1(NTZ) vs. NC model
[22] = at EC90, MDR1(NTZ) vs. NC model
[23] = at EC10, MDR1(PTX) vs. NC model
[24] = at EC20, MDR1(PTX) vs. NC model
[25] = at EC30, MDR1(PTX) vs. NC model
[26] = at EC40, MDR1(PTX) vs. NC model
[27] = at EC50, MDR1(PTX) vs. NC model
[28] = at EC60, MDR1(PTX) vs. NC model
[29] = at EC70, MDR1(PTX) vs. NC model
[30] = at EC80, MDR1(PTX) vs. NC model
[31] = at EC90, MDR1(PTX) vs. NC model

CC(=O)Oc1ccccc1C(=O)Nc1ncc([N+](=O)[O-])s1 [Nitazoxanide]
TC50 [1]: 25.90 µM | TC50 [2]: 38.70 µM | TC50 [3]: 39.09 µM | EC50 ([4]; MDR1, read-out: Antiparasitic efficacy (EC50), C. parvum cultured in MDR1(NTZ) host cells): 1.07 µM | EC50 [4, 11]: 1.06 µM | EC50 [4, 12]: 1.11 µM | EC50 [4, 13]: 1.09 µM | Off-target rate at EC50 ([4]; MDR1(NTZ) cell model, Eq 1): -3.6% | On-target rate at EC50 ([4]; MDR1(NTZ) cell model): 103.6% | On-target rate at EC50 ([4]; MDR1(NTZ) cell model, listed as NTZ): 103.6% | Action on parasite target (on-target) conclusion [4]: 100% on-target | Eoff, proportion of off-parasite-target effect [4, 14]: -7.90% | Eon, proportion of on-parasite-target effect [4, 14]: 107.90% | Eoff, proportion of off-parasite-target effect [4, 15]: -6.10% | Eon, proportion of on-parasite-target effect [4, 15]: 106.10% | Eoff, proportion of off-parasite-target effect [4, 16]: -5.10% | Eon, proportion of on-parasite-target effect [4, 16]: 105.10% | Eoff, proportion of off-parasite-target effect [4, 17]: -4.30% | Eon, proportion of on-parasite-target effect [4, 17]: 104.30% | Eoff, proportion of off-parasite-target effect [4, 18]: −3.6% | Eon, proportion of on-parasite-target effect [4, 18]: 103.6% | Eoff, proportion of off-parasite-target effect [4, 19]: -2.90% | Eon, proportion of on-parasite-target effect [4, 19]: 102.90% | Eoff, proportion of off-parasite-target effect [4, 20]: -2.30% | Eon, proportion of on-parasite-target effect [4, 20]: 102.30% | Eoff, proportion of off-parasite-target effect [4, 21]: -1.50% | Eon, proportion of on-parasite-target effect [4, 21]: 101.50% | Eoff, proportion of off-parasite-target effect [4, 22]: -0.50% | Eon, proportion of on-parasite-target effect [4, 22]: 100.50% | TC50 [5]: 26.76 µM | Pct change of TC50 (vs NC) ([6]; MDR1(NTZ) vs NC cells): 101.5% | TC50 [6]: 52.19 µM | TC50 [7]: 25.37 µM | TC50 [8]: 25.28 µM | TC50 [9]: 26.75 µM | Calculated cytotoxicity at EC50 ([9]; percent inhibition of WT host cell growth at the EC50 concentration, calculated with Eq 5 from k and h): 2.73% | TC50 [10]: 25.59 µM

CC[C@]1(O)C[C@H]2CN(CCc3c([nH]c4ccccc34)[C@@](C(=O)OC)(c3cc4c(cc3OC)N(C=O)[C@H]3[C@@](O)(C(=O)OC)[C@H](OC(C)=O)[C@]5(CC)C=CCN6CC[C@]43[C@@H]65)C2)C1 [Vincristine, Vincristine sulphate]
TC50 [1]: 7.15 µM | TC50 [2]: 7.04 µM | TC50 [3]: 6.87 µM | EC50 [4, 11]: 2.77 µM | EC50 [4, 12]: 1.58 µM | EC50 [4, 13]: 1.64 µM | On-target (Eon) rate at EC50 ([4]; MDR1(PTX) cell model): 62.5% | On-target (Eon) rate at EC50 ([4]; MDR1(PTX) cell model, listed as VCT): 62.5% | Off-target (Eoff) rate at EC50 ([4]; MDR1(PTX) cell model, from Pct changes of EC50 and TC50 (Eq 1)): 37.5% | Action on parasite target (on-target) conclusion [4]: partially on-target | Eoff, proportion of off-parasite-target effect [4, 23]: 38.10% | Eon, proportion of on-parasite-target effect [4, 23]: 61.90% | Eon, proportion of on-parasite-target effect ([4]; at EC10, MDR1(PTX) vs. NC model, listed as VCT): 61.9% | Eoff, proportion of off-parasite-target effect [4, 24]: 38.00% | Eon, proportion of on-parasite-target effect [4, 24]: 62.00% | Eoff, proportion of off-parasite-target effect [4, 25]: 37.90% | Eon, proportion of on-parasite-target effect [4, 25]: 62.10% | Eoff, proportion of off-parasite-target effect [4, 26]: 37.80% | Eon, proportion of on-parasite-target effect [4, 26]: 62.20% | Eoff, proportion of off-parasite-target effect [4, 27]: 37.7% | Eon, proportion of on-parasite-target effect [4, 27]: 62.3% | Eoff, proportion of off-parasite-target effect [4, 28]: 37.60% | Eon, proportion of on-parasite-target effect [4, 28]: 62.40% | Eoff, proportion of off-parasite-target effect [4, 29]: 37.50% | Eon, proportion of on-parasite-target effect [4, 29]: 62.50% | Eoff, proportion of off-parasite-target effect [4, 30]: 37.30% | Eon, proportion of on-parasite-target effect [4, 30]: 62.70% | Eoff, proportion of off-parasite-target effect [4, 31]: 37.10% | Eon, proportion of on-parasite-target effect [4, 31]: 62.90% | Eon, proportion of on-parasite-target effect ([4]; at EC90, MDR1(PTX) vs. NC model, listed as VCT): 62.9% | TC50 [5]: 7.29 µM | TC50 [6]: 12.38 µM | TC50 [7]: 6.96 µM | TC50 [8]: 12.61 µM | TC50 [9]: 6.72 µM | TC50 [10]: 21.51 µM | Pct change of TC50 (vs NC) ([10]; MDR1(PTX) vs NC cells): 200.8%

— article PMC10079235 (PLOS Neglected Tropical Diseases, 2023)
